This note sets out measurements from article PMC11879280, “Antimicrobial activity of peptoids against Metallo-β-lactamase-producing Klebsiella pneumoniae, Acinetobacter baumannii, Pseudomonas aeruginosa, and other WHO priority pathogens, including Candida auris” (Journal of Applied Microbiology, 2025).

A value given as a limit tells only on which side of the number the result lay.

In test [1] the test system is C. auris CBS 10913. In words: Sorbitol protection assay. To be noted: C. auris CBS 10913; sorbitol 0.8 mol l^−1 in RPMI, till 7 days. Type of test: cell-based, Candida auris. The source says:
Caspofungin served as a positive control for the assay (Leite et al. [2014]).

Test [2] deals with C. auris CBS12373. In words: Broth microdilution MIC. Format: cell-based, Candida auris. To be noted: CBS 12 373; RPMI 1640 with MOPS, 5 × 10^3 CFU ml^−1; ≥90% reduction (≥50% for fluconazole). For orientation: Broth dilution looks for growth in wells or tubes with falling amounts of substance.
Test [3] relates to S. aureus 04. To be noted: S. aureus 04; CAMHB, 37°C, 16–20 h. How it is done: (§1) Briefly, bacteria were suspended in cation-adjusted Mueller–Hinton broth (CAMHB; Oxoid, UK) for antibiotics, or MHB (Oxoid, UK) for peptidomimetics to obtain 5 × 10^5 colony forming unit (CFU) ml^−1. […] Positive controls contained only microbes, and blanks contained only media. Microbial suspensions (100 µl) were added to wells, plates wrapped, and incubated at 37°C, 120 rpm for 16–20 h. After incubation, suspensions were removed, log10 diluted, and plated on Trypticase Soya Agar with phosphatidylcholine and Tween 80 to determine minimum bactericidal or fungicidal concentration (MBC or MFC). […] Geometric mean MIC of the peptoids were calculated to evaluate the broad overview of antimicrobial activity across the pathogens.

Test [4] concerns S. aureus 105. The conditions noted are these: S. aureus 105; CAMHB, 37°C, 16–20 h. The method, then:
as §1

Test [5] concerns S. aureus 38. To be noted: S. aureus 38; CAMHB, 37°C, 16–20 h. The method, then: as §1
In test [6] the test system is S. aureus 117. The conditions noted are these: S. aureus 117; CAMHB, 37°C, 16–20 h. How it is done:
as §1

In test [7] the test system is K. pneumoniae JIE4212. To be noted: K. pneumoniae JIE4212; CAMHB, 37°C, 16–20 h. How it is done: as §1
Test [8] relates to Enteroc. faecalis NCTC 13 379. To be noted: Enteroc. faecalis NCTC 13 379; CAMHB, 37°C, 16–20 h. How it is done:
as §1

For test [9], the system named is E. coli 0011. To be noted: E. coli 0011; CAMHB, 37°C, 16–20 h. How it is done:
as §1

Test [10] has as its system En. cloacae 003. To be noted: En. cloacae 003; CAMHB, 37°C, 16–20 h. How it is done: as §1
For test [11], the system named is En. cloacae 005. To be noted: En. cloacae 005; CAMHB, 37°C, 16–20 h. The method, then:
as §1

The test system of test [12] is E. coli 0015. The conditions noted are these: E. coli 0015; CAMHB, 37°C, 16–20 h. How it is done:
as §1

Test [13] deals with K. pneumoniae JIE2709. The conditions noted are these: K. pneumoniae JIE2709; CAMHB, 37°C, 16–20 h. How it is done:
as §1

Test [14] has as its system E. coli 0010. To be noted: E. coli 0010; CAMHB, 37°C, 16–20 h. How it is done: as §1
The subject of test [15] is En. cloacae 001. The conditions noted are these: En. cloacae 001; CAMHB, 37°C, 16–20 h. How it is done: as §1
In test [16] the test system is E. coli 005. The conditions noted are these: E. coli 005; CAMHB, 37°C, 16–20 h. The method, then:
as §1

For test [17], the system named is K. pneumoniae JIE2713. To be noted: K. pneumoniae JIE2713; CAMHB, 37°C, 16–20 h. The method, then:
as §1

Test [18] has as its system P. aeruginosa AR-1270. The conditions noted are these: P. aeruginosa AR-1270; CAMHB, 37°C, 16–20 h. The method, then: as §1
Test [19] deals with A. baumannii ATCC 19 606. To be noted: A. baumannii ATCC 19 606; CAMHB, 37°C, 16–20 h. How it is done: as §1
Test [20] concerns A. baumannii 007. The conditions noted are these: A. baumannii 007; CAMHB, 37°C, 16–20 h. How it is done:
as §1

Test [21] concerns A. baumannii 006. To be noted: A. baumannii 006; CAMHB, 37°C, 16–20 h. How it is done:
as §1

The subject of test [22] is P. aeruginosa 33. To be noted: P. aeruginosa 33; CAMHB, 37°C, 16–20 h. The method, then:
as §1

Test [23] relates to A. baumannii 005. The conditions noted are these: A. baumannii 005; CAMHB, 37°C, 16–20 h. The method, then:
as §1

The test system of test [24] is A. baumannii 008. The conditions noted are these: A. baumannii 008; CAMHB, 37°C, 16–20 h. How it is done:
as §1

The test system of test [25] is P. aeruginosa 216. The conditions noted are these: P. aeruginosa 216; CAMHB, 37°C, 16–20 h. The method, then: as §1
Test [26] concerns K. pneumoniae JIE2709. In words: Checkerboard microdilution synergy test. Format: cell-based, Klebsiella pneumoniae. The method, then: Then, 10 µl of bacteria (5 × 10^6 CFU ml^−1) or C. auris (2.5 × 10^4 CFU ml^−1) were added to each well, except for the sterility control well. […] The sterility control wells contained only MHB (or RPMI in case of C. auris), and the growth control contained 110 µl of microbial inoculum with no antimicrobials. Subsequently, the plates were incubated for 18- 24 hours at 36 ± 1 °C.
The FIC for each combination interaction was calculated as follows:
Then, the summation of FIC (ƩFIC) was calculated for each antimicrobial combination as follows: ƩFIC = FICA + FICB. […] All antimicrobial synergy experiments were repeated in at least two independent runs.

Test [27] deals with C. auris CBS10913. Briefly: Membrane integrity by flow cytometry (SYTO 9 / PI). Type of test: cell-based, Candida auris. The conditions noted are these: TM8 at its MIC or 1% Triton X-100, 90 min; PBS control 0.2%. How it is done: Afterwards, the cells were stained with SYTO 9 (7.5 µmol l^−1) and PI (30 µmol l^−1) for an additional 15 min in the dark at room temperature. Following washing, samples were then analysed for membrane integrity on a BD FACSymphony^TM A3, with a minimum of 10 000 events recorded per sample.

Take `CC[C@H](C)C[C@H](C)CCCCCCCCC(=O)N[C@H]1C[C@@H](O)[C@@H](NCCN)NC(=O)[C@@H]2[C@@H](O)CCN2C(=O)[C@H]([C@H](O)CCN)NC(=O)[C@H]([C@H](O)[C@@H](O)c2ccc(O)cc2)NC(=O)[C@@H]2C[C@@H](O)CN2C(=O)[C@H]([C@@H](C)O)NC1=O` [Caspofungin, reference compound]: the “MIC in the presence of sorbitol” value in test [1] is 1 µg/mL. In test [2], the “MIC against C. auris” value is listed as 0.25 (228.7) µg ml^−1.
Turning to `CO/N=C(\C(=O)N[C@@H]1C(=O)N2C(C(=O)O)=C(COC(C)=O)CS[C@H]12)c1csc(N)n1` [Cefox, cefotaxime, reference compound], the MIC of antibiotics turned out to be 0.5 µg/mL in test [3], 16 µg/mL in test [4], 0.5 µg/mL in test [5] and 0.5 µg/mL in test [6].
As to `O=C(N[C@H](CO)[C@H](O)c1ccc([N+](=O)[O-])cc1)C(Cl)Cl` [Chl, chloramphenicol, reference compound], the MIC of antibiotics in test [7] is 32 µg/mL; in [8] it was 64 µg/mL; in test [3] it was 2 µg/mL; in test [9], 1 µg/mL; in test [10], 32 µg/mL; in [11], 32 µg/mL. The MIC of antibiotics is 2 µg/mL in test [12]; 32 µg/mL in [4]; above 32 µg/mL in [13]; 8 µg/mL in test [14]; 4 µg/mL in [5]; 32 µg/mL in [15]. For the same compound, the MIC of antibiotics in test [6] is 4 µg/mL; in [16], 8 µg/mL; in test [17], 32 µg/mL.
On to `CC[C@H]1OC(=O)[C@H](C)[C@@H](O[C@H]2C[C@@](C)(OC)[C@@H](O)[C@H](C)O2)[C@H](C)[C@@H](O[C@@H]2O[C@H](C)C[C@H](N(C)C)[C@H]2O)[C@](C)(O)C[C@@H](C)C(=O)[C@H](C)[C@@H](O)[C@]1(C)O` [Ery, erythromycin, reference compound], for which the MIC of antibiotics in test [8] stood at 4 µg/mL; in test [3], 0.5 µg/mL; in [4] it was 32 µg/mL; in [5], 1 µg/mL; in test [6] it was 1 µg/mL.
A word on the MIC: it is the lowest concentration that inhibits growth of the organism. `C[C@@H](O)[C@H]1C(=O)N2C(C(=O)O)=C(S[C@@H]3CN[C@H](C(=O)N(C)C)C3)[C@H](C)[C@H]12` [Mer, meropenem, reference compound]: the MIC of antibiotics in test [7] was 1 µg/mL; in test [9], 1 µg/mL; in test [18] it was above 64 µg/mL; in test [10] it was 1 µg/mL; in test [11], 0.25 µg/mL; in test [12] it was 2 µg/mL. For the same compound, the MIC of antibiotics worked out at 0.5 µg/mL in test [19]; 32 µg/mL in [13]; 64 µg/mL in test [20]; 64 µg/mL in [21]; 2 µg/mL in test [14]; 4 µg/mL in [22]. Moreover, the MIC of antibiotics in test [23] is above 64 µg/mL; in test [15], 1 µg/mL; in test [24], 64 µg/mL; in test [25], 1 µg/mL; in test [16] it was 2 µg/mL; in test [17], above 64 µg/mL. Also, the MIC in test [26] (Klebsiella pneumoniae, read-out: MIC of DrugB (alone, checkerboard)) was found to be 32 µg/mL. For the same compound, the FICDrugB in test [26] (in combination with TM8) is on record as 0.125. Also, in test [26] (in combination with TM8), the “MF of antibiotic (modulation factor)” value is reported as 8. Besides, in test [26] (in combination with TM8), the “MIC of DrugB + TM8” value worked out at 4 µg/mL.
Consider `CN(C)c1ccc(O)c2c1C[C@H]1C[C@H]3[C@H](N(C)C)C(O)=C(C(N)=O)C(=O)[C@@]3(O)C(O)=C1C2=O` [Min, minocycline, reference compound], for which the MIC of antibiotics stood at 0.5 µg/mL in test [8]; 0.25 µg/mL in [3]; 16 µg/mL in test [4]; 0.5 µg/mL in test [5]; 0.5 µg/mL in test [6].
In the case of `CN[C@H](CC(C)C)C(=O)N[C@H]1C(=O)N[C@@H](CC(N)=O)C(=O)N[C@H]2C(=O)N[C@H]3C(=O)N[C@H](C(=O)N[C@H](C(=O)O)c4cc(O)cc(O)c4-c4cc3ccc4O)[C@H](O)c3ccc(c(Cl)c3)Oc3cc2cc(c3O[C@@H]2O[C@H](CO)[C@@H](O)[C@H](O)[C@H]2O[C@H]2C[C@](C)(N)[C@H](O)[C@H](C)O2)Oc2ccc(cc2Cl)[C@H]1O` [Van, vancomycin, reference compound], the MIC of antibiotics in test [8] is 32 µg/mL; in test [3], 1 µg/mL; in test [4], 1 µg/mL; in test [5] it was 1 µg/mL; in test [6], 4 µg/mL.
In test [27], Triton X-100 [reference compound] had a Dead cells of 27.3%.
penicillin [reference compound]: the MIC of antibiotics came to 4 µg/mL in [8]; 16 µg/mL in test [3]; 32 µg/mL in [4]; 16 µg/mL in [5]; 16 µg/mL in [6].
